Experimental findings from paper PMC3460821, “SIRT1 Activators Suppress Inflammatory Responses through Promotion of p65 Deacetylation and Inhibition of NF-κB Activity” (PLoS ONE, 2012) are described below.

This experiment concerns SIRT1. The experiment is described as follows: cells. Also on record: species or system U2OS or HEK 293; AlphaScreen of acetylated K310-p65 in lysates of cells co-expressing p300 and HA-p65; reduction by SIRT1 activators. Conditions: reduction of cellular acetylated p65 (K310); read-out: Cellular p65 acetylation assay IC50. The protocol: Acetylated p65 protein in cell lysates was measured by an AlphaScreen format based assay (Bosse et al., Principles of AlphaScreen. PerkinElmer Application Note (2001)). A sandwich comprised of a biotinylated anti-HA antibody (Roche, 12158167001) bound to streptavidin coated donor beads (PerkinElmer, 6760617M) and an anti-acetylated K310-p65 antibody (Abcam, ab19870) interacting with protein A coated acceptor beads was assembled to detect light emission upon acetylated HA-p65 protein binding to the donor and acceptor beads. A similar AlphaScreen assay to measure total HA-tagged p65 protein was also developed by replacing the anti-acetylated K310-p65 antibody with an anti-p65 antibody (Santa Cruz, sc-109). The level of acetylated p65 protein was normalized against the total HA-tagged p65 protein measured in parallel for the same sample. We developed a high throughput cellular assay to examine the ability of compounds to promote SIRT1-mediated deacetylation of p65 protein in cells. This assay system uses BacMam virus transduction in U2OS or HEK 293 cells to co-express p300 HAT and an HA-tagged p65 NF-κB subunit to enable detection of acetylated p65. […] Similarly, pharmacological inhibition of SIRT1 by a specific SIRT1 inhibitor, EX-527 [46], increased the levels of acetylated p65 protein (Figure 3D). […] STACs that were identified from biochemical assays (File S1) were evaluated in the acetylated p65 cellular assay. […] The compounds were tested for the inhibition of histone acetyltransferases (HATs) since this could result in a reduction of acetylated p65 that could not be distinguished from an enhancement of deacetylation.

For `O=C(Nc1nccs1)c1cccc2[nH]c(-c3ccc4c(c3)OC(F)(F)O4)nc12` [SRTCZ1001], the IC50 is more than 25000 nM.

Regarding `O=C(Nc1nccs1)c1cccc2[nH]c(-c3ccccc3OCCN3CCOCC3)nc12` [SRTCX1003], the IC50 stood at 1420 nM.

As for `O=C(Nc1nccs1)c1cccc2[nH]c(-c3cccc(N4CCOCC4)c3)nc12` [SRTCX1002], the IC50 is 840 nM.
